Measurements taken from publication PMC11859726, “HDAC/σ1R Dual-Ligand as a Targeted Melanoma Therapeutic” (Pharmaceuticals, 2025).
Read-outs that look alike come from different tables or passages of the source.

Experiments:
[1] = tested on: endothelial C166 cells; assay: Tube formation assay, VEGF-A-stimulated endothelial cells; type: cell-based, mouse; conditions: for antiangiogenic effect in the presence of pentazocine: 5 µM plus σ1R agonist pentazocine 2 μM; for antiangiogenic effect in the presence of pentazocine / antiangiogenic effect in the presence of AC927: combined score; for antiangiogenic effect in the presence of AC927: 5 µM plus σ2R antagonist AC927 2 μM; for effect on VEGF-A-stimulated angiogenesis (tube lengths, mesh areas, node numbers; words): 5 µM
Method: The tube formation assay using mouse endothelial […] cells was analyzed employing Matrigel (BD, Bedford, MA, USA), as previously described. Briefly, 96-well plates coated with Matrigel (50 μL/well) were filled with 100 μL medium/well and maintained overnight. Endothelial cells were seeded at 2.5 × 10^4 cells/well and incubated (for 3 h) with VEGF-A (80 ng/mL), in the presence of the indicated treatments. Then, capillary-like structures were imaged (×4 magnification) with a CCD camera connected with an inverted EVOS microscope. Finally, ImageJ software (NIH, Bethesda, MD, USA) was employed to quantify tube formations.

[2] = tested on: UM 92-1 cells; assay: Tumor cell spreading assay, 92-1 cells; type: cell-based, human; conditions: 1 h; for cells flat, with protrusions, Exp 1 (%) / cells flat, with protrusions, Exp 2 (%) / cells flat, with protrusions, Exp 3 (%) / rounded cells, Exp 1 (%) / rounded cells, Exp 2 (%) / rounded cells, Exp 3 (%): 92-1, % of total cell population; for inhibition of cell spreading: UM 92-1 cells, from 100 nM
Method: (§1) Adherent 92-1 and MCF-7 cells were harvested using 0.05% Trypsin-EDTA and plated in 6-well plates. After 1 h incubations with the indicated treatments, the number of cells that formed, or not, distinct protrusions (lamellipodia, filopodia) were scored with an inverted microscope (20×, EVOS cell imaging system, Thermo Fisher, Waltham, MA, USA).

[3] = tested on: MCF7 cells; assay: Tumor cell spreading assay, MCF7 cells; type: cell-based, human; conditions: 100 nM, 1 h; for inhibition of cell spreading: MCF7 cells (low σ1R); for cells flat, with protrusions, Exp 1 (%) / cells flat, with protrusions, Exp 2 (%) / cells flat, with protrusions, Exp 3 (%) / rounded cells, Exp 1 (%) / rounded cells, Exp 2 (%) / rounded cells, Exp 3 (%): MCF-7, % of total cell population
Method: as §1

[4] = molecular target: T1, σ1R (Cavia porcellus, UniProt Q60492); assay: σ1R radioligand binding assay ([3H]-(+)-pentazocine); set-up: species or system guinea pig
T1 construct: using guinea pig brain membranes and appropriate radioligands; from tissue; host or cells: guinea pig brain membranes
Method: (§4) Radioactivity was determined with a Beckman LS6500 scintillation counter. Inhibition constants (Ki values) were calculated with the EBDA/LIGAND program (Elsevier/Biosoft).

[5] = molecular target: T2, σ2R (Cavia porcellus, UniProt H0V073); assay: σ2R radioligand binding assay ([3H]-DTG); set-up: species or system guinea pig
T2 construct: using guinea pig brain membranes and appropriate radioligands; from tissue; host or cells: guinea pig brain membranes
T2 sequence (H0V073 1-176): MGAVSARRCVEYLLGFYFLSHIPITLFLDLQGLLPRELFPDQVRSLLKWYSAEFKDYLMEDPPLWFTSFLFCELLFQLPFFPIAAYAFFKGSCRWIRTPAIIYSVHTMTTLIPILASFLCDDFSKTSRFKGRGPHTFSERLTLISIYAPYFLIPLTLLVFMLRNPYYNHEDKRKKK
Method: as §4

[6] = tested on: HDAC (total HDAC activity, HCT116 cell lysates); assay: HDAC activity colorimetric assay in HCT116 cell lysates; type: biochemical, human
Method: (§2) HDAC activity was determined in the indicated cell lysates (50 µg proteins; 37 °C) using the non-selective HDAC Activity Colorimetric Assay kit (BioVision, Cambridge, UK), following the procedures described in previous studies. Samples were read at 405 nm with a microplate reader (Multiskan GO (Thermo Fisher Scientific, Waltham, MA, USA)), and the HDAC activity was expressed as the relative optical density (O.D.) values.

[7] = tested on: HDAC enzymatic activities (MCF7, PC3, AGS cell lysates); assay: HDAC activity colorimetric assay in other cancer cell lysates (MCF7, PC3, AGS); type: biochemical, human; conditions: other cancer cell types (MCF7, PC3, AGS lysates) vs control
Method: as §2

[8] = tested on: UM 92-1 cells; assay: Cell proliferation, UM 92-1 cells; type: cell-based, human
Method: (§3) Cells were seeded in 96-well plates at a cell-specific density, following quantification of cell numbers on counting chambers after trypsinization and staining with trypan blue. After seeding (72 h), at a cell confluence of ~50%, the medium was removed, and treatments were started with fresh media. Treatments, carried out in quadruplicate, lasted for 48 h. Then, the cells were fixed with 4% paraformaldehyde in PBS for 20 min and, after washing, stained with either 1% crystal violet in water or an acridine orange solution (50 µg/mL) for an additional 20 min. At the end of the incubations, cells were washed (3 times) with 100 μL/well of bidistilled water. Finally, for crystal violet assays, 100 μL of 10% acetic acid was added to each well, and the absorbance (λ = 590 nm) was measured with a Synergy HTX Bioteck spectrophotometer (BioSPX, Beersel, Belgium). For acridine orange assays, cell staining was evaluated by measuring the fluorescence (excitation 485/20 nm, emission 528/20 nm) with the Synergy HTX Bioteck reader.

[9] = tested on: A375 cells; assay: Cell proliferation, CM A375 cells; type: cell-based, human
Method: as §3

[10] = tested on: A549 cells; assay: Cell proliferation, A549 cells; type: cell-based; conditions: Homo sapiens; A549 (Lung Carcinoma); 48 h; mean ± SD; read-out: Antiproliferative IC50
Method: as §3

[11] = tested on: 786-O cells; assay: Cell proliferation, 786-O cells; type: cell-based; conditions: Homo sapiens, 786-0; 786-O (Renal Adenocarcinoma); 48 h; mean ± SD; read-out: Antiproliferative IC50
Method: as §3

[12] = tested on: MRC-5 cells; assay: Cell proliferation, normal MRC-5 fibroblasts; type: cell-based; conditions: Homo sapiens, MRC5; MRC-5 (Normal Lung Fibroblast); 48 h; mean ± SD; read-out: Antiproliferative IC50
Method: as §3

[13] = tested on: T84 cells; assay: Cell proliferation, T84 cells; type: cell-based, human
Method: as §3

[14] = tested on: WS1 cells; assay: Cell proliferation, normal WS1 fibroblasts; type: cell-based; conditions: Homo sapiens; WS1 (Normal Skin Fibroblast); 48 h; mean ± SD; read-out: Antiproliferative IC50
Method: as §3

T1 sequence (Q60492 whole entry): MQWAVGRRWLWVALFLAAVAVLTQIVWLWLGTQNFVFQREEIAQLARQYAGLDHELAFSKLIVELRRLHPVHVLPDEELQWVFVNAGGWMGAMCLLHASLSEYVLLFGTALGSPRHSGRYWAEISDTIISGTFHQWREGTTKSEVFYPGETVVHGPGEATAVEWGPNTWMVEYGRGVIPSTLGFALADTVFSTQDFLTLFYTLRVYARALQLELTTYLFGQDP

Structure (SMILES) | antiangiogenic effect in the presence of pentazocine [1] | effect on VEGF-A-stimulated angiogenesis (tube lengths, mesh areas, node numbers; words) ([1]; 3 h, VEGF-A 80 ng/mL) | cells flat, with protrusions, Exp 1 (%) ([2]; 100 nM) | cells flat, with protrusions, Exp 2 (%) ([2]; 100 nM) | cells flat, with protrusions, Exp 3 (%) ([2]; 100 nM) | rounded cells, Exp 1 (%) ([2]; 100 nM) | rounded cells, Exp 2 (%) ([2]; 100 nM) | rounded cells, Exp 3 (%) ([2]; 100 nM) | cells flat, with protrusions, Exp 2 (%) ([2]; 5 µM) | cells flat, with protrusions, Exp 3 (%) ([2]; 5 µM) | rounded cells, Exp 2 (%) ([2]; 5 µM) | rounded cells, Exp 3 (%) ([2]; 5 µM) | inhibition of cell spreading [2] | inhibition of cell spreading [3] | cells flat, with protrusions, Exp 1 (%) [3] | cells flat, with protrusions, Exp 2 (%) [3] | cells flat, with protrusions, Exp 3 (%) [3] | rounded cells, Exp 1 (%) [3] | rounded cells, Exp 2 (%) [3] | rounded cells, Exp 3 (%) [3] | further results
CCCC(CCC)C(=O)O[C@@H](CCCN1CCC(O)(c2ccc(Cl)cc2)CC1)c1ccc(F)cc1 [(-)-1, reference compound] | partially and equally blocked | significantly inhibited | 33,84% | 21,33% | 34,97% | 66,16% | 78,67% | 65,03% | 13,49% | 26,09% | 86,51% | 73,91% | reduced UM cell spreading with seemingly higher potencies | unable to significantly inhibit | 45,95% | 48,03% | 40,28% | 54,05% | 51,97% | 59,72% | antiangiogenic effect in the presence of AC927 [1]: partially and equally blocked
Cl.O=C(/C=C/c1ccc(CN2CCC(O)(c3ccc(Cl)cc3)CC2)cc1)NO [5c, (E)-4-(4-chlorophenyl)-4-hydroxy-1-{4-[3-(hydroxyamino)-3-oxoprop-1-en-1-yl]benzyl}piperidin-1-ium chloride] | completely prevented | abrogated | 37,23% | 27,77% | 37,27% | 62,77% | 72,23% | 62,73% | 17,22% | 33,05% | 82,78% | 66,95% | significant inhibition | failed to suppress | 47,13% | 44,67% | 39,07% | 52,87% | 55,33% | 60,93% | Ki [4]: 19 ± 1.6 nM; fold higher affinity for σ1R than σ2R ([4]; σ1R vs σ2R Ki): > 100 fold; Ki [5]: 2050 ± 737 nM; HDAC inhibition with respect to the vehicle control [6]: ~ 80%; IC50 ([6]; 0–20 µM, read-out: IC50 on HDAC-dependent catalytic activity): 14.6 nM; suppression of resident HDAC enzymatic activities [7]: significant suppression; superior antiproliferative potency in UM cells compared to normal lung fibroblasts ([8]; 92-1 vs MRC-5 IC50): ~ 5 fold; IC50 ([8]; Homo sapiens, 92.1 (Uveal Melanoma), 48 h, mean ± SD, read-out: Antiproliferative IC50): 24.8 ± 5.8 nM; shift to the left in antiproliferative dose–response curves compared to normal skin fibroblasts ([9]; CM A375, lung A549 and renal 786-O vs WS1): 8–10 fold; IC50 ([9]; Homo sapiens, A-375, A375 (Cutaneous Melanoma), 48 h, mean ± SD, read-out: Antiproliferative IC50): 91.5 ± 11.4 nM; IC50 [10]: 118 ± 13 nM; IC50 [11]: 150 ± 24 nM; IC50 [12]: 157 ± 55.2 nM; IC50 ([13]; Homo sapiens, T84 (Colorectal Carcinoma), 48 h, mean ± SD, read-out: Antiproliferative IC50): 1200 ± 381 nM; sensitivity to antitumor actions ([13]; colon cancer T84 cells): resistant; IC50 [14]: 1160 ± 187 nM; effect on VEGF-A-stimulated angiogenesis ([1]; 30 nM, 3 h, VEGF-A 80 ng/mL): without effects; antiangiogenic effect in the presence of AC927 [1]: to a significantly lesser extent than pentazocine; cells flat, with protrusions, Exp 1 (%) ([2]; 5 µM): 28,48%; rounded cells, Exp 1 (%) ([2]; 5 µM): 71,52%
COC(=O)/C=C/c1ccc(CN2CCC(O)(c3ccc(Cl)cc3)CC2)cc1 [3c, Metil-(E)-3-(4-{[4-(4-clorofenil)-4-idrossipiperidin-1-il]methyl}phenyl)acrylate] | – | mimicked the effects of 5c | 36,01% | 25,21% | 33,92% | 63,99% | 74,79% | 66,08% | 18,28% | 39,44% | 81,72% | 60,56% | significantly suppressed | unable to significantly inhibit | 49,37% | 50,89% | 46,27% | 50,63% | 49,11% | 53,73% | Ki [4]: 28 ± 4.4 nM; Ki ([5]; guinea pig brain membranes, mean ± SD, read-out: Ki σ2R): 1330 ± 286 nM; effect on proliferation ([8]; UM 92-1 cells, 3c 30 and 100 nM, pentazocine 2 μM, AC927 2 μM, Figure 3a): loss of activity; effect on proliferation ([9]; CM A375 cells, 3c 90 and 200 nM, pentazocine 2 μM, AC927 2 μM, Figure 3b): loss of activity; cells flat, with protrusions, Exp 1 (%) ([2]; 5 µM): 45,38%; rounded cells, Exp 1 (%) ([2]; 5 µM): 54,62%
